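96-well plates; 48 h exposure; 5 concentrations. Endpoints by linear interpolation between flanking doses. Not reached: highest tested concentration assigned. The concentration for 50% growth inhibition is given as GI50.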 Active and inactive are the calls of the source. No stated cut-off is given here; in the data, active = GI50 up to about 1.1 µM and inactive = higher.
Tests used:
Experiment in all cases: inhibition of tumour cell growth, NCI panel, 48 h
[1] = tested on: UACC-62
[2] = tested on: SF-539
[3] = tested on: MDA-MB-231
[4] = tested on: OVCAR-8
[5] = tested on: A498
[6] = tested on: SN12C
[7] = tested on: NCI-H226
[8] = tested on: MDA-MB-435
[9] = tested on: Hs-578T
[10] = tested on: SNB-75
[11] = tested on: NCI-H23
[12] = tested on: MCF7
[13] = tested on: BT-549
[14] = tested on: OVCAR-3
[15] = tested on: OVCAR-4
[16] = tested on: HOP-92
[17] = tested on: HL-60
[18] = tested on: HOP-62
[19] = tested on: DU-145
[20] = tested on: SR

Compound | GI50 [1] | GI50 [2] | GI50 [3] | GI50 [4] | GI50 [5] | GI50 [6] | GI50 [7] | GI50 [8] | GI50 [9] | GI50 [10] | GI50 [11] | GI50 [12] | GI50 [13] | GI50 [14] | GI50 [15] | GI50 [16] | GI50 [17] | GI50 [18] | GI50 [19] | GI50 [20]
N#Cc1cc(-c2nc3c(F)cccc3s2)ccc1N | > 100 µM (inactive) | > 100 µM (inactive) | > 100 µM (inactive) | > 100 µM (inactive) | > 100 µM (inactive) | > 100 µM (inactive) | > 100 µM (inactive) | 45.5 µM (inactive) | > 100 µM (inactive) | > 100 µM (inactive) | > 100 µM (inactive) | 0.133 µM (active) | > 100 µM (inactive) | 96.4 µM (inactive) | > 100 µM (inactive) | 3.52 µM (inactive) | > 100 µM (inactive) | > 100 µM (inactive) | > 100 µM (inactive) | –
COc1cc(C)c(C2NC(=O)c3ccccc3N2)cc1C (stereo not given) | 0.201 µM (active) | 0.229 µM (active) | 0.968 µM (active) | 0.942 µM (active) | 0.312 µM (active) | 0.692 µM (active) | 0.652 µM (active) | 0.0294 µM (active) | 0.234 µM (active) | 0.0543 µM (active) | 2.51 µM (inactive) | 0.957 µM (active) | 0.476 µM (active) | 0.127 µM (active) | 0.342 µM (active) | – | 0.1 µM (active) | 1.36 µM (inactive) | 0.4 µM (active) | 0.0364 µM (active)
Nc1ccc(Oc2ccc(C34CC5CC(C3)CC(c3ccc(Oc6ccc(N)cc6C(F)(F)F)cc3)(C5)C4)cc2)c(C(F)(F)F)c1 | 22.1 µM (inactive) | – | 15.2 µM (inactive) | 16 µM (inactive) | 18.3 µM (inactive) | 31.1 µM (inactive) | 19.4 µM (inactive) | 24.2 µM (inactive) | 17.1 µM (inactive) | – | 17.7 µM (inactive) | 13.4 µM (inactive) | 21.9 µM (inactive) | 17.9 µM (inactive) | 36.6 µM (inactive) | – | 24.2 µM (inactive) | 18.2 µM (inactive) | 35.2 µM (inactive) | –
CCN(CC)c1ccc2cc(C(=O)Nc3ccccn3)c(=N)oc2c1 | 30.3 µM (inactive) | 43.5 µM (inactive) | 47.5 µM (inactive) | 36.3 µM (inactive) | > 100 µM (inactive) | > 100 µM (inactive) | > 100 µM (inactive) | > 100 µM (inactive) | 32.1 µM (inactive) | 28.5 µM (inactive) | 37.8 µM (inactive) | – | > 100 µM (inactive) | > 100 µM (inactive) | > 100 µM (inactive) | > 100 µM (inactive) | > 100 µM (inactive) | 22.9 µM (inactive) | > 100 µM (inactive) | > 100 µM (inactive)
COc1ccc2oc(C(=O)N3CC(CCl)c4ccc([N+](=O)[O-])cc43)cc2c1 (stereo not given) | 41.9 µM (inactive) | 14 µM (inactive) | 14.9 µM (inactive) | 17.2 µM (inactive) | 18.9 µM (inactive) | – | 0.664 µM (active) | 0.468 µM (active) | 9.12 µM (inactive) | 18.2 µM (inactive) | 73.8 µM (inactive) | – | 42.3 µM (inactive) | – | 15.2 µM (inactive) | 26.1 µM (inactive) | – | 12.4 µM (inactive) | 25.4 µM (inactive) | 0.402 µM (active)
CCCc1cc(=O)oc2c3c(c4c(c12)OC(C)(C)CC4)O[C@H](C)[C@@H](C)[C@H]3O | 14.1 µM (inactive) | 21.4 µM (inactive) | 14.1 µM (inactive) | 15.5 µM (inactive) | – | 16.4 µM (inactive) | 15.6 µM (inactive) | 11.5 µM (inactive) | 22.6 µM (inactive) | 16.4 µM (inactive) | 16 µM (inactive) | 16.3 µM (inactive) | 13.4 µM (inactive) | 18.5 µM (inactive) | 14.2 µM (inactive) | 18.3 µM (inactive) | – | 16.6 µM (inactive) | 16.1 µM (inactive) | –
CN(Cc1cnc2c(n1)C(N)=NN(N)N2)c1ccc(C(=O)NC(CCP(=O)(O)O)C(=O)O)cc1 (stereo not given) | 1.78 µM (inactive) | 3.47 µM (inactive) | > 100 µM (inactive) | > 36.2 µM (inactive) | 36.5 µM (inactive) | > 63.2 µM (inactive) | > 35.1 µM (inactive) | 3.95 µM (inactive) | > 100 µM (inactive) | 7.01 µM (inactive) | 14.9 µM (inactive) | 2.18 µM (inactive) | 16 µM (inactive) | > 100 µM (inactive) | > 100 µM (inactive) | > 100 µM (inactive) | 0.252 µM (active) | > 100 µM (inactive) | – | –
CC(O)CN1c2ccccc2Sc2ccccc21 (stereo not given) | > 100 µM (inactive) | > 100 µM (inactive) | > 100 µM (inactive) | > 100 µM (inactive) | > 100 µM (inactive) | > 100 µM (inactive) | > 100 µM (inactive) | > 100 µM (inactive) | > 100 µM (inactive) | – | > 100 µM (inactive) | > 100 µM (inactive) | > 100 µM (inactive) | > 100 µM (inactive) | > 100 µM (inactive) | > 100 µM (inactive) | – | > 100 µM (inactive) | > 100 µM (inactive) | –
ClC(Cl)(Cl)C1CCOC1n1nnc2ccccc21 (stereo not given) | > 100 µM (inactive) | > 100 µM (inactive) | > 100 µM (inactive) | > 100 µM (inactive) | > 100 µM (inactive) | > 100 µM (inactive) | > 100 µM (inactive) | > 100 µM (inactive) | 89.7 µM (inactive) | 1.2 µM (inactive) | 24.3 µM (inactive) | > 100 µM (inactive) | 25.9 µM (inactive) | > 100 µM (inactive) | – | – | 11.9 µM (inactive) | > 100 µM (inactive) | > 100 µM (inactive) | –
OCC1OC(c2cccc3cc(O)c(O)cc23)CC1O (stereo not given) | > 100 µM (inactive) | > 100 µM (inactive) | > 100 µM (inactive) | > 100 µM (inactive) | > 100 µM (inactive) | > 100 µM (inactive) | 66.7 µM (inactive) | > 100 µM (inactive) | > 100 µM (inactive) | > 100 µM (inactive) | – | > 100 µM (inactive) | > 100 µM (inactive) | 94.8 µM (inactive) | > 100 µM (inactive) | > 100 µM (inactive) | 42.3 µM (inactive) | > 100 µM (inactive) | > 100 µM (inactive) | –
CC(C)c1cc(C(C)C)c(S(=O)(=O)N/N=C2\CC3CCC2(C)C3(C)C)c(C(C)C)c1 (stereo not given) | 37.3 µM (inactive) | – | 5.74 µM (inactive) | > 100 µM (inactive) | 0.0222 µM (active) | 12.4 µM (inactive) | 16.9 µM (inactive) | 34.8 µM (inactive) | 29.7 µM (inactive) | – | 17.4 µM (inactive) | 10 µM (inactive) | > 100 µM (inactive) | 33.7 µM (inactive) | 29 µM (inactive) | – | – | 74.8 µM (inactive) | 18 µM (inactive) | –
S=c1c2cn[nH]c2nc2scc(-c3ccc(Cl)cc3)n12 | 16.3 µM (inactive) | 17.7 µM (inactive) | 17 µM (inactive) | 16 µM (inactive) | – | 16.6 µM (inactive) | – | 3.78 µM (inactive) | 8.73 µM (inactive) | 13.9 µM (inactive) | 13.8 µM (inactive) | 18.5 µM (inactive) | 10.5 µM (inactive) | 20.1 µM (inactive) | 43.1 µM (inactive) | – | – | 16.9 µM (inactive) | – | 12.1 µM (inactive)
COc1ccc(C2SC(C)C(=O)N2c2nc(-c3nc(-c4ccc(Cl)cc4)cs3)cs2)cc1 (stereo not given) | > 100 µM (inactive) | > 100 µM (inactive) | > 100 µM (inactive) | > 100 µM (inactive) | – | > 100 µM (inactive) | > 100 µM (inactive) | > 100 µM (inactive) | > 100 µM (inactive) | > 100 µM (inactive) | > 100 µM (inactive) | > 100 µM (inactive) | > 100 µM (inactive) | > 100 µM (inactive) | > 100 µM (inactive) | > 100 µM (inactive) | 94.4 µM (inactive) | > 100 µM (inactive) | – | > 100 µM (inactive)
CC1CC[C@@]2(OC1)OC1CC3C4CCC5C[C@@H](OC6OC(CO)C(OC7OC(CO)C(O)C(OC8OC(CO)C(O)C(OC9OC(CO)C(O)C(O)C9O)C8O)C7OC7OC(CO)C(O)C(O)C7O)C(O)C6O)[C@H](O)C[C@]5(C)C4CC[C@]3(C)C1[C@@H]2C (stereo not given in full) | > 80.5 µM (inactive) | > 80.5 µM (inactive) | > 80.5 µM (inactive) | > 80.5 µM (inactive) | > 80.5 µM (inactive) | > 80.5 µM (inactive) | > 80.5 µM (inactive) | > 80.5 µM (inactive) | > 80.5 µM (inactive) | > 80.5 µM (inactive) | > 80.5 µM (inactive) | > 80.5 µM (inactive) | > 80.5 µM (inactive) | > 80.5 µM (inactive) | > 80.5 µM (inactive) | > 80.5 µM (inactive) | > 80.5 µM (inactive) | > 80.5 µM (inactive) | > 80.5 µM (inactive) | –
Cc1ccc(O)cc1.Cc1cccc(O)c1.Cc1ccccc1O [CRESOL] | 88.3 µM (inactive) | > 100 µM (inactive) | > 100 µM (inactive) | > 100 µM (inactive) | > 100 µM (inactive) | > 100 µM (inactive) | 85.9 µM (inactive) | > 100 µM (inactive) | 4.75 µM (inactive) | – | > 100 µM (inactive) | > 100 µM (inactive) | > 100 µM (inactive) | > 100 µM (inactive) | 89.3 µM (inactive) | – | > 100 µM (inactive) | > 100 µM (inactive) | > 100 µM (inactive) | –

Source: ChEMBL document CHEMBL1201862, “PubChem BioAssay data set” (2004)
